Usually pest or weed control stands for the degree to which the test organism was suppressed or injured, in per cent. A lower pest or weed control goes with weak suppression.

Molecules are shown by their SMILES. Some results are limits rather than exact numbers.

The assay concerns Phakopsora pachyrhizi. Put plainly: Phakopsora pachyrhizi Test in Soybean (preventive spray). In kind it is in vivo. The following applies: preventive spray on Soybean plants, inoculated one day after treatment, disease severity vs untreated control. As for the experimental part: Example 7: Phakopsora pachyrhizi Test in Soybean Compounds were dissolved in 2% dimethyl sulfoxide/acetone and then mixed with water containing an emulsifier to a calibrated spray volume of 50 mL. This 50 mL spray solution was poured into spray bottles for further applications. To test the preventive activity of compounds, healthy young Soybean plants, raised in the greenhouse, were sprayed with the active compound preparation at the stated application rates inside the spray cabinets using hollow cone nozzles. One day after treatment, the plants were inoculated with a spore suspension containing 2×10^5Phakopsora pachyrhizi conidia. The inoculated plants were then kept in a greenhouse chamber at 22-24° C. temperature and 80-90% relative humidity for disease expression. A visual assessment of the compound's performance was carried out by rating the disease severity (0-100% scale) on treated plants 3, 7, 10 and 15 days after application. Efficacy (% control) of the compounds was calculated by comparing the disease rating in the treatment with the one of the untreated control. The sprayed plants were also assessed for plant compatibility by recording symptoms like necrosis, chlorosis and stunting.

With `O=C(CSc1ccc(Cl)c(Cl)c1)c1ccc(-c2noc(C(F)(F)F)n2)cc1` [Compound 52, 2-((3,4-dichlorophenyl)thio)-1-(4-(5-(trifluoromethyl)-1,2,4-oxadiazol-3-yl)phenyl)ethan-1-one], the pest or weed control at 500 ppm was no less than 70%.

`O=C(CSc1ccc(Cl)cc1)c1ccc(-c2noc(C(F)(F)F)n2)cc1` [Compound 53, 2-((4-chlorophenyl)thio)-1-(4-(5-(trifluoromethyl)-1,2,4-oxadiazol-3-yl)phenyl)ethan-1-one] registered a pest or weed control at 500 ppm of no less than 70%.

As for `O=C(CSc1cccc(Cl)c1)c1ccc(-c2noc(C(F)(F)F)n2)cc1` [Compound 54, 2-((3-chlorophenyl)thio)-1-(4-(5-(trifluoromethyl)-1,2,4-oxadiazol-3-yl)phenyl)ethan-1-one], the pest or weed control at 500 ppm is no less than 70%.

In turn, `O=C(CSCc1ccccc1)c1ccc(-c2noc(C(F)(F)F)n2)cc1` [Compound 56, 2-(benzylthio)-1-(4-(5-(trifluoromethyl)-1,2,4-oxadiazol-3-yl)phenyl)ethan-1-one] returned a pest or weed control at 500 ppm of no less than 70%.

For the compound `COc1ccc(CSCC(=O)c2ccc(-c3noc(C(F)(F)F)n3)cc2)cc1` [Compound 57, 2-((4-methoxybenzyl)thio)-1-(4-(5-(trifluoromethyl)-1,2,4-oxadiazol-3-yl)phenyl)ethan-1-one], the pest or weed control at 500 ppm was no less than 70%.

The compound `CC(SCC(=O)c1ccc(-c2noc(C(F)(F)F)n2)cc1)c1ccccc1` (stereo not shown) [Compound 58, 2-((1-phenylethyl)thio)-1-(4-(5-(trifluoromethyl)-1,2,4-oxadiazol-3-yl)phenyl)ethan-1-one] returned a pest or weed control at 500 ppm of no less than 70%.

On to `O=C(CSc1ccccc1)c1ccc(-c2noc(C(F)(F)F)n2)cc1` [Compound 60, 2-(phenylthio)-1-(4-(5-(trifluoromethyl)-1,2,4-oxadiazol-3-yl)phenyl)ethan-1-one], for which the pest or weed control at 500 ppm was no less than 70%.

In turn, `COc1ccccc1SCC(=O)c1ccc(-c2noc(C(F)(F)F)n2)cc1` [Compound 63, 2-((2-methoxyphenyl)thio)-1-(4-(5-(trifluoromethyl)-1,2,4-oxadiazol-3-yl)phenyl)ethan-1-one] had a pest or weed control at 500 ppm of no less than 70%.

On to `O=C(CSc1cccc(F)c1)c1ccc(-c2noc(C(F)(F)F)n2)cc1` [Compound 64, 2-((3-fluorophenyl)thio)-1-(4-(5-(trifluoromethyl)-1,2,4-oxadiazol-3-yl)phenyl)ethan-1-one], for which the pest or weed control at 500 ppm is no less than 70%.

Take `O=C(CSc1ccccc1F)c1ccc(-c2noc(C(F)(F)F)n2)cc1` [Compound 65, 2-((2-fluorophenyl)thio)-1-(4-(5-(trifluoromethyl)-1,2,4-oxadiazol-3-yl)phenyl)ethan-1-one]: the pest or weed control at 500 ppm is no less than 70%.

`Cc1cccc(SCC(=O)c2ccc(-c3noc(C(F)(F)F)n3)cc2)c1` [Compound 67, 2-(m-tolylthio)-1-(4-(5-(trifluoromethyl)-1,2,4-oxadiazol-3-yl)phenyl)ethan-1-one]: the pest or weed control at 500 ppm is no less than 70%.

As to `O=C(C[S+]([O-])c1ccc(Cl)cc1)c1ccc(-c2noc(C(F)(F)F)n2)cc1` (stereo not shown) [Compound 78, 2-((4-chlorophenyl)sulfinyl)-1-(4-(5-(trifluoromethyl)-1,2,4-oxadiazol-3-yl)phenyl)ethan-1-one], the pest or weed control at 500 ppm is no less than 70%.

In turn, `CC(c1ccccc1)[S+]([O-])CC(=O)c1ccc(-c2noc(C(F)(F)F)n2)cc1` (stereo not shown) [Compound 82, 2-((1-phenylethyl)sulfinyl)-1-(4-(5-(trifluoromethyl)-1,2,4-oxadiazol-3-yl)phenyl)ethan-1-one] displayed a pest or weed control at 500 ppm of no less than 70%.

In the case of `O=C(C[S+]([O-])c1ccccc1)c1ccc(-c2noc(C(F)(F)F)n2)cc1` (stereo not shown) [Compound 84, 2-(phenylsulfinyl)-1-(4-(5-(trifluoromethyl)-1,2,4-oxadiazol-3-yl)phenyl)ethan-1-one], the pest or weed control at 500 ppm is no less than 70%.

In turn, `O=C(C[S+]([O-])c1cccc(C(F)(F)F)c1)c1ccc(-c2noc(C(F)(F)F)n2)cc1` (stereo not shown) [Compound 85, 1-(4-(5-(trifluoromethyl)-1,2,4-oxadiazol-3-yl)phenyl)-2-((3-(trifluoromethyl)phenyl)sulfinyl)ethan-1-one] showed a pest or weed control at 500 ppm of no less than 70%.

For the compound `Cc1ccc([S+]([O-])CC(=O)c2ccc(-c3noc(C(F)(F)F)n3)cc2)cc1` (stereo not shown) [Compound 86, 2-(p-tolylsulfinyl)-1-(4-(5-(trifluoromethyl)-1,2,4-oxadiazol-3-yl)phenyl)ethan-1-one], the pest or weed control at 500 ppm was no less than 70%.

`O=C(C[S+]([O-])c1cccc(F)c1)c1ccc(-c2noc(C(F)(F)F)n2)cc1` (stereo not shown) [Compound 87, 2-((3-fluorophenyl)sulfinyl)-1-(4-(5-(trifluoromethyl)-1,2,4-oxadiazol-3-yl)phenyl)ethan-1-one] yielded a pest or weed control at 500 ppm of no less than 70%.

Compound `O=C(C[S+]([O-])c1ccccc1F)c1ccc(-c2noc(C(F)(F)F)n2)cc1` (stereo not shown) [Compound 88, 2-((2-fluorophenyl)sulfinyl)-1-(4-(5-(trifluoromethyl)-1,2,4-oxadiazol-3-yl)phenyl)ethan-1-one] came in with a pest or weed control at 500 ppm of no less than 70%.

As to `O=C(CS(=O)(=O)c1ccc(Cl)c(Cl)c1)c1ccc(-c2noc(C(F)(F)F)n2)cc1` [Compound 94, 2-((3,4-dichlorophenyl)sulfonyl)-1-(4-(5-(trifluoromethyl)-1,2,4-oxadiazol-3-yl)phenyl)ethan-1-one], the pest or weed control at 500 ppm is no less than 70%.

In the case of `O=C(CS(=O)(=O)c1ccc(Cl)cc1)c1ccc(-c2noc(C(F)(F)F)n2)cc1` [Compound 95, 2-((4-chlorophenyl)sulfonyl)-1-(4-(5-(trifluoromethyl)-1,2,4-oxadiazol-3-yl)phenyl)ethan-1-one], the pest or weed control at 500 ppm was no less than 70%.

`O=C(CS(=O)(=O)c1ccc(F)c(F)c1)c1ccc(-c2noc(C(F)(F)F)n2)cc1` [Compound 96, 2-((3,4-difluorophenyl)sulfonyl)-1-(4-(5-(trifluoromethyl)-1,2,4-oxadiazol-3-yl)phenyl)ethan-1-one] returned a pest or weed control at 500 ppm of no less than 70%.

`COc1ccc(CS(=O)(=O)CC(=O)c2ccc(-c3noc(C(F)(F)F)n3)cc2)cc1` [Compound 98, 2-((4-methoxybenzyl)sulfonyl)-1-(4-(5-(trifluoromethyl)-1,2,4-oxadiazol-3-yl)phenyl)ethan-1-one] registered a pest or weed control at 500 ppm of no less than 70%.

The compound `O=C(CS(=O)(=O)C1CCCCC1)c1ccc(-c2noc(C(F)(F)F)n2)cc1` [Compound 100, 2-(cyclohexylsulfonyl)-1-(4-(5-(trifluoromethyl)-1,2,4-oxadiazol-3-yl)phenyl)ethan-1-one] gave a pest or weed control at 500 ppm of no less than 70%.

Take `O=C(CS(=O)(=O)c1cccc(C(F)(F)F)c1)c1ccc(-c2noc(C(F)(F)F)n2)cc1` [Compound 103, 1-(4-(5-(trifluoromethyl)-1,2,4-oxadiazol-3-yl)phenyl)-2-((3-(trifluoromethyl)phenyl)sulfonyl)ethan-1-one]: the pest or weed control at 500 ppm is no less than 70%.

`O=C(CN1CCOCC1)c1ccc(-c2noc(C(F)(F)F)n2)cc1` [Compound 136, 2-morpholino-1-(4-(5-(trifluoromethyl)-1,2,4-oxadiazol-3-yl)phenyl)ethan-1-one] came in with a pest or weed control at 500 ppm of no less than 70%.
